Assay results published in patent US8163766B2, “Beta-secretase modulators and methods of use” (Amgen Inc., priority 2005, dated 2012).

Tested on: Aβ 40 in conditioned media of cells stably expressing Amyloid Precursor Protein (APP)
Assay: BACE Cell-Based Assay (Aβ40 in conditioned medium, sandwich ELISA)
Conditions: 24 hours of incubation with the test compounds, Aβ 40 by sandwich ELISA, read-out: IC50 values in the cell-based assay (inhibition of Aβ 40)
Outline: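 APP-stably-expressing cells in DMEM/10% FBS exposed 24 h to 10-point compound dilutions starting at 100 or 10 μM, 0.1% DMSO final. Aβ40 in conditioned medium measured by sandwich ELISA (pAb40 capture, biotinylated 6E10 detection, Eu time-resolved fluorescence); IC50 from percent inhibition versus concentration.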

Row | Compound | IC50
1 | COCCNc1ccc2c(c1)[C@@H](NC[C@@H](O)[C@H](Cc1ccccc1)NC(=O)c1cc(-c3ccccn3)c(=O)n(C3CCCC3)c1)CC(C)(C)C2=O [Example 505, 1′-cyclopentyl-N-((1S,2R)-3-(((1S)-3,3-dimethyl-7-((2-(methyloxy)ethyl)amino)-4-oxo-1,2,3,4-tetrahydro-1-naphthalenyl)amino)-2-hydroxy-1-(phenylmethyl)propyl)-2′-oxo-1′,2′-dihydro-2,3′-bipyridine-5′-carboxamide] | ≤ 5 µM
2 | COCCNc1ccc2c(c1)[C@@H](NC[C@@H](O)[C@@H](Cc1ccccc1)NC(=O)c1cc(-c3ccccn3)c(=O)n(C3CCCC3)c1)CC(C)(C)C2=O [Example 507, 1′-cyclopentyl-N-((1R,2R)-3-(((1S)-3,3-dimethyl-7-((2-(methyloxy)ethyl)amino)-4-oxo-1,2,3,4-tetrahydro-1-naphthalenyl)amino)-2-hydroxy-1-(phenylmethyl)propyl)-2′-oxo-1′,2′-dihydro-2,3′-bipyridine-5′-carboxamide] | ≤ 5 µM
3 | CCc1cc2c(s1)CC1(CCC1)C[C@@H]2NC[C@@H](O)[C@H](Cc1ccccc1)NC(=O)c1cc(-c2ccccn2)c(=O)n(C(C)C)c1 [Example 508, N-((1S,2R)-3-(((4S)-2-ethyl-4,7-dihydro-5H-spiro[1-benzothiophene-6,1′-cyclobutan]-4-yl)amino)-2-hydroxy-1-(phenylmethyl)propyl)-1′-(1-methylethyl)-2′-oxo-1′,2′-dihydro-2,3′-bipyridine-5′-carboxamide] | ≤ 5 µM
4 | Cc1cnc2c(c1)[C@@H](NC[C@@H](O)[C@H](Cc1cc(F)cc(F)c1)NC(=O)[C@@H]1CCOC1)CC1(CCC1)C2 [Example 509, (3R)-N-((1S,2R)-1-((3,5-difluorophenyl)methyl)-2-hydroxy-3-(((5′S)-3′-methyl-5′,8′-dihydro-6′H-spiro[cyclobutane-1,7′-quinolin]-5′-yl)amino)propyl)tetrahydro-3-furancarboxamide] | ≤ 5 µM
5 | Cc1cnc2c(c1)[C@@H](NC[C@@H](O)[C@H](Cc1cc(F)cc(F)c1)NC(=O)C1CCOCC1)CC1(CCC1)C2 [Example 510, N-((1S,2R)-1-((3,5-difluorophenyl)methyl)-2-hydroxy-3-(((5′S)-3′-methyl-5′,8′-dihydro-6′H-spiro[cyclobutane-1,7′-quinolin]-5′-yl)amino)propyl)tetrahydro-2H-pyran-4-carboxamide] | ≤ 5 µM
6 | CCc1ccc2c(c1)[C@@H](NC[C@@H](O)[C@H](Cc1ccccc1)NC(=O)[C@H]1CN(C(=O)c3cccc(C)c3)CCO1)CC1(CCC1)O2 [Example 511, (2R)-N-((1S,2R)-3-(((4S)-6-ethyl-3,4-dihydrospiro[chromene-2,1′-cyclobutan]-4-yl)amino)-2-hydroxy-1-(phenylmethyl)propyl)-4-((3-methylphenyl)carbonyl)-2-morpholinecarboxamide] | ≤ 5 µM
7 | CC1(C)Oc2ncccc2[C@H]1NC[C@@H](O)[C@H](Cc1ccccc1)NC(=O)c1cc(-c2ccccn2)c(=O)n(C2CCCC2)c1 [Example 512, 1′-cyclopentyl-N-((1S,2R)-3-(((3R)-2,2-dimethyl-2,3-dihydrofuro[2,3-b]pyridin-3-yl)amino)-2-hydroxy-1-(phenylmethyl)propyl)-2′-oxo-1′,2′-dihydro-2,3′-bipyridine-5′-carboxamide] | ≤ 5 µM
8 | CC1(C)Oc2ncccc2[C@@H]1NC[C@@H](O)[C@H](Cc1ccccc1)NC(=O)c1cc(C2=CC=CCN2)c(=O)n(C2CCCC2)c1 [Example 513, 1′-cyclopentyl-N-((1S,2R)-3-(((3S)-2,2-dimethyl-2,3-dihydrofuro[2,3-b]pyridin-3-yl)amino)-2-hydroxy-1-(phenylmethyl)propyl)-2′-oxo-1,2′-dihydro-2,3′-bipyridine-5′-carboxamide] | ≤ 5 µM
9 | CCc1cc2c(s1)CC(C)(C)C[C@@H]2NC[C@@H](O)[C@H](Cc1ccccc1)NC(=O)[C@@H]1CN(C(=O)c2cccc(C)c2)CCO1 [Example 514, (2S)-N-((1S,2R)-3-(((4S)-2-ethyl-6,6-dimethyl-4,5,6,7-tetrahydro-1-benzothien-4-yl)amino)-2-hydroxy-1-(phenylmethyl)propyl)-4-((3-methylphenyl)carbonyl)-2-morpholinecarboxamide] | ≤ 5 µM
10 | CCc1cc2c(s1)CC(C)(C)C[C@@H]2NC[C@@H](O)[C@H](Cc1ccccc1)NC(=O)[C@H]1CN(C(=O)c2cccc(C)c2)CCO1 [Example 515, (2R)-N-((1S,2R)-3-(((4S)-2-ethyl-6,6-dimethyl-4,5,6,7-tetrahydro-1-benzothien-4-yl)amino)-2-hydroxy-1-(phenylmethyl)propyl)-4-((3-methylphenyl)carbonyl)-2-morpholinecarboxamide] | ≤ 5 µM
11 | CC1(C)Cc2ccc(O[C@H]3CCOC3)cc2[C@@H](NC[C@@H](O)[C@H](Cc2ccccc2)NC(=O)[C@H]2CCC(=O)O2)C1 [Example 516, (2R)-N-((1S,2R)-3-(((1S)-3,3-dimethyl-7-((3S)-tetrahydro-3-furanyloxy)-1,2,3,4-tetrahydro-1-naphthalenyl)amino)-2-hydroxy-1-(phenyl-methyl)propyl)-5-oxotetrahydro-2-furancarboxamide] | ≤ 5 µM
12 | CC1(C)Cc2ccc(O[C@H]3CCOC3)cc2[C@@H](NC[C@@H](O)[C@H](Cc2ccccc2)NC(=O)[C@@H]2CCC(=O)O2)C1 [Example 517, (2S)-N-((1S,2R)-3-(((1S)-3,3-dimethyl-7-((3S)-tetrahydro-3-furanyloxy)-1,2,3,4-tetrahydro-1-naphthalenyl)amino)-2-hydroxy-1-(phenyl-methyl)propyl)-5-oxotetrahydro-2-furancarboxamide] | ≤ 5 µM
13 | CC1(C)Cc2ccc(O[C@H]3CCOC3)cc2[C@@H](NC[C@@H](O)[C@H](Cc2ccccc2)NC(=O)c2ccc(=O)n(C3CCCC3)c2)C1 [Example 518, 1-cyclopentyl-N-((1S,2R)-3-(((1S)-3,3-dimethyl-7-((3S)-tetrahydro-3-furanyloxy)-1,2,3,4-tetrahydro-1-naphthalenyl)amino)-2-hydroxy-1-(phenylmethyl)propyl)-6-oxo-1,6-dihydro-3-pyridinecarboxamide] | ≤ 5 µM
14 | CC1(C)Cc2ccc(O[C@H]3CCOC3)cc2[C@@H](NC[C@@H](O)[C@H](Cc2ccccc2)NC(=O)c2cc(-c3ccccn3)c(=O)n(C3CCCC3)c2)C1 [Example 519, 1′-cyclopentyl-N-((1S,2R)-3-(((1S)-3,3-dimethyl-7-((3S)-tetrahydro-3-furanyloxy)-1,2,3,4-tetrahydro-1-naphthalenyl)amino)-2-hydroxy-1-(phenylmethyl)propyl)-2′-oxo-1′,2′-dihydro-2,3′-bipyridine-5′-carboxamide] | ≤ 5 µM
15 | CCc1ccc2c(c1)[C@@H](NC[C@@H](O)[C@H](Cc1ccccc1)NC(=O)[C@@H]1CN(C(=O)N3CCO[C@@H](C)C3)CCO1)CC1(CCC1)O2 [Example 521, (2S)-N-((1S,2R)-3-(((4S)-6-ethyl-3,4-dihydrospiro[chromene-2,1′-cyclobutan]-4-yl)amino)-2-hydroxy-1-(phenylmethyl)propyl)-4-(((2S)-2-methyl-4-morpholinyl)carbonyl)-2-morpholinecarboxamide] | ≤ 5 µM
16 | CC(C)(C)Cc1cnc2c(c1)[C@@H](NC[C@@H](O)[C@H](Cc1ccccc1)NC(=O)c1cc(C3CCCCO3)c(=O)n(C3CCCC3)c1)CC1(CCC1)O2 (stereo partly drawn) [Example 522, 1-cyclopentyl-N-((1S,2R)-3-(((4′S)-6′-(2,2-dimethyl-propyl)-3′,4′-dihydrospiro[cyclobutane-1,2′-pyrano[2,3-b]pyridin]-4′-yl)amino)-2-hydroxy-1-(phenyl-methyl)propyl)-6-oxo-5-(tetrahydro-2H-pyran-2-yl)-1,6-dihydro-3-pyridinecarboxamide] | ≤ 5 µM
17 | CCc1cc2c(s1)CC(C)(C)C[C@@H]2NC[C@@H](O)[C@H](Cc1ccccc1)NC(=O)[C@H]1CC(=O)N(C2CCC2)C1 [Example 523, (3S)-1-cyclobutyl-N-((1S,2R)-3-(((4S)-2-ethyl-6,6-dimethyl-4,5,6,7-tetrahydro-1-benzothien-4-yl)amino)-2-hydroxy-1-(phenylmethyl)propyl)-5-oxo-3-pyrrolidinecarboxamide] | ≤ 5 µM
18 | O=C(N[C@@H](Cc1ccccc1)[C@H](O)CN[C@H]1CC2(CCC2)Oc2ccc(N3CCOCC3)cc21)[C@H]1CC(=O)N(C2CCC2)C1 [Example 524, (3S)-1-cyclobutyl-N-((1S,2R)-2-hydroxy-3-(((4S)-6-(4-morpholinyl)-3,4-dihydrospiro[chromene-2,1′-cyclobutan]-4-yl)amino)-1-(phenylmethyl)propyl)-5-oxo-3-pyrrolidinecarboxamide] | ≤ 5 µM
19 | CCc1ccc2c(c1)[C@@H](NC[C@@H](O)[C@H](Cc1cscn1)NC(=O)c1cc(-c3ccccn3)c(=O)n(C3CCCC3)c1)CC1(CCC1)O2 [Example 525, 1′-cyclopentyl-N-((1S,2R)-3-(((4S)-6-ethyl-3,4-dihydrospiro[chromene-2,1′-cyclobutan]-4-yl)amino)-2-hydroxy-1-(1,3-thiazol-4-ylmethyl)propyl)-2′-oxo-1′,2′-dihydro-2,3′-bipyridine-5′-carboxamide] | ≤ 5 µM
20 | O=C(N[C@@H](Cc1ccccc1)[C@H](O)CN[C@H]1CC2(CCC2)Oc2ccc(N3CCOCC3)cc21)[C@@H]1CN(C(=O)C2CCOCC2)CCO1 [Example 526, (2S)-N-((1S,2R)-2-hydroxy-3-(((4S)-6-(4-morpholinyl)-3,4-dihydrospiro[chromene-2,1′-cyclobutan]-4-yl)amino)-1-(phenylmethyl)propyl)-4-(tetrahydro-2H-pyran-4-ylcarbonyl)-2-morpholinecarboxamide] | ≤ 5 µM
21 | CCc1ccc2c(c1)[C@@H](NC[C@@H](O)[C@H](Cc1ccccc1)NC(=O)[C@@H]1C[C@@H](c3ccccc3)CN(C(=O)c3cccc(C)c3)C1)CC1(CCC1)O2 [Example 527, (3R,5S)-N-((1S,2R)-3-(((4S)-6-ethyl-3,4-dihydrospiro[chromene-2,1′-cyclobutan]-4-yl)amino)-2-hydroxy-1-(phenylmethyl)propyl)-1-((3-methylphenyl)carbonyl)-5-phenyl-3-piperidinecarboxamide] | ≤ 5 µM
